Reference: patent US9963496B2, “Stable glucagon analogues and use for treatment of hypoglycaemia” (Novo Nordisk A/S, priority 2014, dated 2018)
*1 amine or outer side, *2 acyl side, *3 side chain or, on linkers, in order; H or OH if unused. Where a SMILES comes first, the peptide text is derived from it. Side-chain parts run from the residue outwards. [ ]: non-standard residue; d: D form. The star is where a group is joined. γGlu = O=C(O)[C@H](CCC(=O)[*:2])N[*:1]; Desaminohistidyl = O=C(CCc1c[nH]cn1)*; Aib = CC(C)(N)C(=O)O

test: physchem; assay type: physicochemical; conditions: pH 7.5
Source text: Assay (III): ThT Fibrillation Assay for the Assessment of Physical Stability of Peptide Compositions The purpose of this assay is to assess the physical stability of the glucagon derivatives of the invention in aqueous solutions. Low physical stability of a peptide may lead to amyloid fibril formation, which is observed as well-ordered, thread-like macromolecular structures in the sample, which eventually may lead to gel formation. This has traditionally been measured by visual inspection of the sample. However, that kind of measurement is very cumbersome and depending on the observer. Therefore, the application of a small molecule indicator probe is much more advantageous. Thioflavin T (ThT) is such a probe and has a distinct fluorescence signature when binding to fibrils [Naiki et al. (1989) Anal. Biochem. 177, 244-249; LeVine (1999) Methods. Enzymol. 309, 274-284]. Here, as depicted in FIG. 1, F is the ThT fluorescence at the time t. The constant t0 is the time needed to reach 50% of maximum fluorescence. The two important parameters describing fibril formation are the lag-time calculated by t0−2τ and the apparent rate constant kapp 1/τ. Samples were prepared freshly before each assay. Each sample composition is described in the legends. The pH of the sample was adjusted to the desired value using appropriate amounts of concentrated NaOH and HCl. Thioflavin T was added to the samples from a stock solution in H2O to a final concentration of 1 μM. Sample aliquots of 200 μl (250 μM of the glucagon derivative/analogue in 10 mM HEPES buffer, pH 7.5) were placed in a 96 well microtiter plate (Packard OptiPlate™-96, white polystyrene). Usually, four or eight replica of each sample (corresponding to one test condition) was placed in one column of wells. The plate was sealed with Scotch Pad (Qiagen). Incubation at given temperature, shaking and measurement of the ThT fluorescence emission were done in a Fluoroskan Ascent FL fluorescence platereader (Thermo Labsystems). The plate was incubated 37° C. with orbital shaking adjusted to 960 rpm with an amplitude of 1 mm. Fluorescence measurement was done using excitation through a 444 nm filter and measurement of emission through a 485 nm filter. Each run was initiated by incubating the plate at the assay temperature for 10 min. The plate was measured every 20 minutes for a desired period of time. Between each measurement, the plate was shaken and heated as described. After completion of the ThT assay the four or eight replica of each sample was pooled and centrifuged at 20000 rpm for 30 minutes at 18° C. The supernatant was filtered through a 0.22 μm filter and an aliquot was transferred to a HPLC vial. The concentration of peptide in the initial sample and in the filtered supernatant was determined by reverse phase HPLC using an appropriate standard as reference. The percentage fraction the concentration of the filtered sample constituted of the initial sample concentration was reported as the recovery. The measurement points were saved in Microsoft Excel format for further processing and curve drawing and fitting was performed using GraphPad Prism. The background emission from ThT in the absence of fibrils was negligible. The data points were typically a mean of four or eight samples and shown with standard deviation error bars. Only data obtained in the same experiment (i.e. samples on the same plate) were presented in the same graph ensuring a relative measure of fibrillation between experiments. The data set may be fitted to Eq. (1).

Question: For `CC(=O)N[C@@H](CCC(=O)N[C@@H](CCC(=O)N[C@@H](CCC(=O)N[C@@H](CCC(=O)NCCCC[C@H](NC(=O)[C@@H](NC(=O)[C@H](Cc1ccccc1)NC(=O)[C@H](CC(=O)O)NC(=O)[C@H](CCC(N)=O)NC(=O)[C@H](C)NC(=O)[C@H](CCCNC(=N)N)NC(=O)[C@H](CCCNC(=N)N)NC(=O)[C@H](CO)NC(=O)[C@H](CCC(=O)O)NC(=O)[C@H](CC(C)C)NC(=O)[C@H](Cc1ccc(O)cc1)NC(=O)[C@H](CCCCN)NC(=O)[C@H](CO)NC(=O)[C@H](Cc1ccc(O)cc1)NC(=O)[C@H](CC(=O)O)NC(=O)[C@H](CO)NC(=O)[C@@H](NC(=O)[C@H](Cc1ccccc1)NC(=O)[C@@H](NC(=O)CNC(=O)[C@H](Cc1c[nH]cn1)NC(=O)[C@H](CO)NC(=O)CCc1c[nH]cn1)[C@@H](C)O)[C@@H](C)O)C(C)C)C(=O)N[C@@H](Cc1c[nH]c2ccccc12)C(=O)N[C@@H](CC(C)C)C(=O)N[C@@H](CC(C)C)C(=O)N[C@@H](CO)C(=O)N[C@H](C(=O)O)[C@@H](C)O)C(=O)O)C(=O)O)C(=O)O)C(=O)O` [Example 5, N^ϵ24-[(4S)-4-[[(4S)-4-[[(4S)-4-[[(4S)-4-acetamido-4-carboxybutanoyl]amino]-4-carboxybutanoyl]amino]-4-carboxybutanoyl]amino]-4-carboxybutanoyl]-[Imp1, His3, Glu15, Lys24, Leu27, Ser28]-Glucagon] (Desaminohistidyl-SHGTFTSDYSKYLESRRAQDFVK([γGlu-γGlu-γGlu-γGlu-Ac])WLLST-OH), which recovery at 250 μM is on record?
Answer: Its recovery at 250 μM is 100%.

Question: Which recovery at 250 μM does the source give for `CC(=O)N[C@@H](CCC(=O)N[C@@H](CCC(=O)N[C@@H](CCC(=O)N[C@@H](CCC(=O)NCC(=O)NCCCC[C@H](NC(=O)[C@@H](NC(=O)[C@H](Cc1ccccc1)NC(=O)[C@H](CCC(=O)O)NC(=O)[C@H](CCC(N)=O)NC(=O)[C@H](C)NC(=O)[C@H](CCCNC(=N)N)NC(=O)[C@H](CCCNC(=N)N)NC(=O)[C@H](CO)NC(=O)[C@H](CCC(=O)O)NC(=O)[C@H](CC(C)C)NC(=O)[C@H](Cc1ccc(O)cc1)NC(=O)[C@H](CCCCN)NC(=O)[C@H](CO)NC(=O)[C@H](Cc1ccc(O)cc1)NC(=O)[C@H](CC(=O)O)NC(=O)[C@H](CO)NC(=O)[C@@H](NC(=O)[C@H](Cc1ccccc1)NC(=O)[C@@H](NC(=O)CNC(=O)[C@H](Cc1c[nH]cn1)NC(=O)[C@H](CO)NC(=O)CCc1c[nH]cn1)[C@@H](C)O)[C@@H](C)O)C(C)C)C(=O)N[C@@H](Cc1c[nH]c2ccccc12)C(=O)N[C@@H](CC(C)C)C(=O)N[C@@H](CC(C)C)C(=O)N[C@@H](CO)C(=O)N[C@H](C(=O)O)[C@@H](C)O)C(=O)O)C(=O)O)C(=O)O)C(=O)O` [Example 17, N^ϵ24-[2-[[(4S)-4-[[(4S)-4-[[(4S)-4-[[(4S)-4-acetamido-4-carboxybutanoyl]amino]-4-carboxybutanoyl]amino]-4-carboxybutanoyl]amino]-4-carboxybutanoyl]amino]acetyl]-[Imp1, His3, Glu15, Glu21, Lys24, Leu27, Ser28]-Glucagon] (Desaminohistidyl-SHGTFTSDYSKYLESRRAQEFVK([Gly-γGlu-γGlu-γGlu-γGlu-Ac])WLLST-OH) here?
Answer: Its recovery at 250 μM is 100%.

Question: With `CC(=O)N[C@@H](CCC(=O)N[C@@H](CCC(=O)N[C@@H](CCC(=O)N[C@@H](CCC(=O)NCCCC[C@H](NC(=O)[C@H](C)NC(=O)[C@H](CCCNC(=N)N)NC(=O)[C@H](CCCNC(=N)N)NC(=O)[C@H](CO)NC(=O)[C@H](CCC(=O)O)NC(=O)[C@H](CC(C)C)NC(=O)[C@H](Cc1ccc(O)cc1)NC(=O)[C@H](CCCCN)NC(=O)[C@H](CO)NC(=O)[C@H](Cc1ccc(O)cc1)NC(=O)[C@H](CC(=O)O)NC(=O)[C@H](CO)NC(=O)[C@@H](NC(=O)[C@H](Cc1ccccc1)NC(=O)[C@@H](NC(=O)CNC(=O)[C@H](Cc1c[nH]cn1)NC(=O)[C@H](CO)NC(=O)CCc1c[nH]cn1)[C@@H](C)O)[C@@H](C)O)C(=O)N[C@@H](CCC(=O)O)C(=O)N[C@@H](Cc1ccccc1)C(=O)N[C@H](C(=O)N[C@@H](CCC(N)=O)C(=O)N[C@@H](Cc1c[nH]c2ccccc12)C(=O)N[C@@H](CC(C)C)C(=O)N[C@@H](CC(C)C)C(=O)N[C@@H](CO)C(=O)N[C@H](C(=O)O)[C@@H](C)O)C(C)C)C(=O)O)C(=O)O)C(=O)O)C(=O)O` [Example 12, N^ϵ20-[(4S)-4-[[(4S)-4-[[(4S)-4-[[(4S)-4-acetamido-4-carboxybutanoyl]amino]-4-carboxybutanoyl]amino]-4-carboxybutanoyl]amino]-4-carboxybutanoyl]-[Imp1, His3, Glu15, Lys20, Glu21, Leu27, Ser28]-Glucagon] (Desaminohistidyl-SHGTFTSDYSKYLESRRAK([γGlu-γGlu-γGlu-γGlu-Ac])EFVQWLLST-OH) as the molecule, how does the recovery at 250 μM read?
Answer: Its recovery at 250 μM is 88%.

Question: For `CC(=O)N[C@@H](CCC(=O)N[C@@H](CCC(=O)N[C@@H](CCC(=O)N[C@@H](CCC(=O)NCCCC[C@H](NC(=O)[C@H](CCC(=O)O)NC(=O)[C@H](CC(C)C)NC(=O)[C@H](Cc1ccc(O)cc1)NC(=O)[C@H](CCCCN)NC(=O)[C@H](CO)NC(=O)[C@H](Cc1ccc(O)cc1)NC(=O)[C@H](CC(=O)O)NC(=O)[C@H](CO)NC(=O)[C@@H](NC(=O)[C@H](Cc1ccccc1)NC(=O)[C@@H](NC(=O)CNC(=O)[C@H](Cc1c[nH]cn1)NC(=O)[C@H](CO)NC(=O)CCc1c[nH]cn1)[C@@H](C)O)[C@@H](C)O)C(=O)N[C@@H](CCCNC(=N)N)C(=O)N[C@@H](CCCNC(=N)N)C(=O)N[C@@H](C)C(=O)N[C@@H](CCC(N)=O)C(=O)N[C@@H](CCC(=O)O)C(=O)N[C@@H](Cc1ccccc1)C(=O)N[C@H](C(=O)N[C@@H](CCC(N)=O)C(=O)N[C@@H](Cc1c[nH]c2ccccc12)C(=O)N[C@@H](CC(C)C)C(=O)N[C@@H](CC(C)C)C(=O)N[C@@H](CO)C(=O)N[C@H](C(=O)O)[C@@H](C)O)C(C)C)C(=O)O)C(=O)O)C(=O)O)C(=O)O` [Example 11, N^ϵ16-[(4S)-4-[[(4S)-4-[[(4S)-4-[[(4S)-4-acetamido-4-carboxybutanoyl]amino]-4-carboxybutanoyl]amino]-4-carboxybutanoyl]amino]-4-carboxybutanoyl]-[Imp1, His3, Glu15, Lys16, Glu21, Leu27, Ser28]-Glucagon] (Desaminohistidyl-SHGTFTSDYSKYLEK([γGlu-γGlu-γGlu-γGlu-Ac])RRAQEFVQWLLST-OH), which recovery at 250 μM is on record?
Answer: The recovery at 250 μM was 98%.

Question: Which recovery at 250 μM does the source give for `CC(=O)N[C@@H](CCC(=O)N[C@@H](CCC(=O)N[C@@H](CCC(=O)N[C@@H](CCC(=O)NCCCC[C@H](NC(=O)[C@@H](NC(=O)[C@H](Cc1ccccc1)NC(=O)[C@H](CC(=O)O)NC(=O)[C@H](CCC(N)=O)NC(=O)[C@H](C)NC(=O)[C@H](CCCNC(=N)N)NC(=O)[C@H](CCCNC(=N)N)NC(=O)[C@H](CO)NC(=O)[C@H](CCC(=O)O)NC(=O)[C@H](CC(C)C)NC(=O)[C@H](Cc1ccc(O)cc1)NC(=O)[C@H](CCCCN)NC(=O)[C@H](CO)NC(=O)[C@H](CC(C)C)NC(=O)[C@H](CC(=O)O)NC(=O)[C@H](CO)NC(=O)[C@@H](NC(=O)[C@H](Cc1ccccc1)NC(=O)[C@@H](NC(=O)CNC(=O)[C@H](Cc1c[nH]cn1)NC(=O)C(C)(C)NC(=O)CCc1c[nH]cn1)[C@@H](C)O)[C@@H](C)O)C(C)C)C(=O)N[C@@H](Cc1c[nH]c2ccccc12)C(=O)N[C@@H](CC(C)C)C(=O)N[C@@H](CC(C)C)C(=O)N[C@@H](CO)C(=O)N[C@H](C(=O)O)[C@@H](C)O)C(=O)O)C(=O)O)C(=O)O)C(=O)O` [Example 3, N^ϵ24-[(4S)-4-[[(4S)-4-[[(4S)-4-[[(4S)-4-acetamido-4-carboxybutanoyl]amino]-4-carboxybutanoyl]amino]-4-carboxybutanoyl]amino]-4-carboxybutanoyl]-[Imp1, Aib2, His3, Leu10, Glu15, Lys24, Leu27, Ser28]-Glucagon] (Desaminohistidyl-[Aib]HGTFTSDLSKYLESRRAQDFVK([γGlu-γGlu-γGlu-γGlu-Ac])WLLST-OH) here?
Answer: Its recovery at 250 μM is 100%.
